Source: US10421754B2, “Quinazoline derivative” (CSPC ZHONGQI PHARMACEUTICAL TECHNOLOGY (SHIJIAZHUANG) CO., …, priority 2014, dated 2019)

Test system: HCC827
Assay: In vitro cell experiment (MTT), HCC827
Type: cell-based
Conditions: 72 h, human non-small cell lung carcinoma (EGFR1 19 exon mutation)
Method: (§1) Cells in logarithmic growth phase were seeded at a certain density in a 96-well plate (200 μL/well). The cells were allowed to grow for 24 h and subsequently treated with different concentrations of drugs (including a blank group and a control group) and incubated for 72 h at 37° C. Each concentration in a given experiment was tested in triplicate. After 72 h of exposure, 20 μL of the MTT labeling reagent was added to the medium (the final concentration of MTT was 0.5 mg/mL), and the cells were incubated for additional 4 h at 37° C. Following this process, 180 μL of the medium was removed and 130 μL of DMSO was added to each well, or the medium was completely removed and 150 μL of DMSO was added to each well. Then the plate was shaken and mixed in a micro-oscillator. Finally the optical density (OD) of each sample was measured in a micro-plate reader at 550 nm. Cell inhibition rate was calculated according to the following formula: […]
(§2) According to cell inhibition rates, IC50 was calculated by LOGIT method. The experiments were repeated twice and the data was expressed as means±SD.

Going from `COc1cc2c(Nc3ccc(F)c(Cl)c3)ncnc2cc1OCCN1CCCC1` [Compound 20, 4-(3-chloro-4-fluoroanilino)-6-methoxy-7-(2-(pyrrolidine-1-yl)ethoxy)quinazoline] to `COc1cc2c(Nc3ccc(Br)cc3F)ncnc2cc1OCC1CCN(C)CC1` [Vandetanib, reference compound], the IC50 rises from 2.9 nM to 19.3 nM (6.7-fold). The first is the more potent here.

Going from `COc1cc2c(Nc3ccc(Br)cc3F)ncnc2cc1OCCCn1ccnc1` [Compound 14, 4-(4-bromo-2-fluoroanilino)-6-methoxy-7-(3-(1H-imidazol-1-yl)propoxy)quinazoline] to `COc1cc2c(Nc3ccc(Br)cc3F)ncnc2cc1OCCCC(N)=O` [Compound 23, 4-(4-(4-bromo-2-fluoroanilino)-6-methoxyquinazolin-7-yl-oxy)butanamide], the IC50 falls from 8.9 nM to 5 nM (1.8-fold).

Going from `COc1cc2c(Nc3ccc(Br)cc3F)ncnc2cc1OCCCCCC(N)=O` [Compound 6, 6-(4-(4-bromo-2-fluoroanilino)-6-methoxyquinazolin-7-yl-oxy)hexanamide] to `COc1cc2c(Nc3ccc(Br)cc3F)ncnc2cc1OCCCCCC(=O)N(C)C` [Compound 32, N, N-dimethyl-6-(4-(4-bromo-2-fluoroanilino)-6-methoxyquinazolin-7-yloxy)hexanamide], the IC50 rises from 4.7 nM to 11 nM (2.3-fold).

Test system: A431
Assay: In vitro cell experiment (MTT), A431
Type: cell-based
Conditions: A-431, 72 h, human epidermoid carcinoma (EGFR1 overexpressing)
Method: as §1, §2

Going from `COc1cc2c(Nc3ccc(F)c(Cl)c3)ncnc2cc1OCCN1CCCC1` [Compound 20, 4-(3-chloro-4-fluoroanilino)-6-methoxy-7-(2-(pyrrolidine-1-yl)ethoxy)quinazoline] to `COc1cc2c(Nc3ccc(Br)cc3F)ncnc2cc1OCC1CCN(C)CC1` [Vandetanib, reference compound], the IC50 rises from 2140 nM to 3230 nM (1.5-fold). The first is the more potent here.

Molecule `COc1cc2c(Nc3ccc(Br)cc3F)ncnc2cc1OCCCCCC(N)=O` [Compound 6, 6-(4-(4-bromo-2-fluoroanilino)-6-methoxyquinazolin-7-yl-oxy)hexanamide] has an IC50 of 2100 nM.

Test system: H292
Assay: In vitro cell experiment (MTT), H292
Type: cell-based
Conditions: NCI-H292, 72 h, human lung carcinoma cells (EGFR1 overexpressing)
Method: as §1, §2

`COc1cc2c(Nc3ccc(Br)cc3F)ncnc2cc1OCCCn1ccnc1` [Compound 14, 4-(4-bromo-2-fluoroanilino)-6-methoxy-7-(3-(1H-imidazol-1-yl)propoxy)quinazoline] and `COc1cc2c(Nc3ccc(Br)cc3F)ncnc2cc1OCCCCCC(N)=O` [Compound 6, 6-(4-(4-bromo-2-fluoroanilino)-6-methoxyquinazolin-7-yl-oxy)hexanamide] are within 1.5-fold of each other in IC50: 37.4 nM for the first, 46.9 nM for the second.

For `COc1cc2c(Nc3ccc(Br)cc3F)ncnc2cc1OCC1CCN(C)CC1` [Vandetanib, reference compound], the IC50 was 167 nM.

Test system: PC-9
Assay: In vitro cell experiment (MTT), PC-9
Type: cell-based
Conditions: 72 h, human non-small-cell lung carcinoma cells (EGFR1 19 exon mutation)
Method: as §1, §2

First: COc1cc2c(Nc3ccc(Br)cc3F)ncnc2cc1OCC1CCN(C)CC1 [Vandetanib, reference compound]
Second: COc1cc2c(Nc3ccc(Br)cc3F)ncnc2cc1OCCCCCC(=O)N(C)C [Compound 32, N, N-dimethyl-6-(4-(4-bromo-2-fluoroanilino)-6-methoxyquinazolin-7-yloxy)hexanamide]
The IC50 of the first is 2.2-fold higher: 14.9 nM for the first, 6.7 nM for the second.

Test system: A375
Assay: In vitro cell experiment (MTT), A375
Type: cell-based
Conditions: A-375, 72 h, human melanoma cells (KDR expressing)
Method: as §1, §2

For `COc1cc2c(Nc3ccc(Br)cc3F)ncnc2cc1OCCCn1ccnc1` [Compound 14, 4-(4-bromo-2-fluoroanilino)-6-methoxy-7-(3-(1H-imidazol-1-yl)propoxy)quinazoline], the IC50 was 161 nM.

Test system: HT-29
Assay: In vitro cell experiment (MTT), HT-29
Type: cell-based
Conditions: 72 h, human colon carcinoma cells (expressing both c-KIT and PDGFR)
Method: as §1, §2

`COc1cc2c(Nc3ccc(F)c(Cl)c3)ncnc2cc1OCCN1CCCC1` [Compound 20, 4-(3-chloro-4-fluoroanilino)-6-methoxy-7-(2-(pyrrolidine-1-yl)ethoxy)quinazoline] and `COc1cc2c(Nc3ccc(Br)cc3F)ncnc2cc1OCC1CCN(C)CC1` [Vandetanib, reference compound] are within 1.5-fold of each other in IC50: 2230 nM for the first, 3230 nM for the second.

Test system: TT
Assay: In vitro cell experiment (MTT), TT
Type: cell-based
Conditions: 72 h, human thyroid carcinoma cells (RET C634W mutation)
Method: as §1, §2

Work on `COc1cc2c(Nc3ccc(Br)cc3F)ncnc2cc1OCC1CCN(C)CC1` [Vandetanib, reference compound] yielded an IC50 of 192 nM.

Test system: HCT116
Assay: In vitro cell experiment (MTT), HCT116
Type: cell-based
Conditions: HCT-116, 72 h, human colon carcinoma cells
Method: as §1, §2

`COc1cc2c(Nc3ccc(Br)cc3F)ncnc2cc1OCCCn1ccnc1` [Compound 14, 4-(4-bromo-2-fluoroanilino)-6-methoxy-7-(3-(1H-imidazol-1-yl)propoxy)quinazoline] and `COc1cc2c(Nc3ccc(Br)cc3F)ncnc2cc1OCC1CCN(C)CC1` [Vandetanib, reference compound] are within 1.5-fold of each other in IC50: 913 nM for the first, 1210 nM for the second.

Test system: SK-OV-3
Assay: In vitro cell experiment (MTT), SK-OV-3
Type: cell-based
Conditions: 72 h, human ovarian carcinoma cells (EGFR2 overexpressing)
Method: as §1, §2

`COc1cc2c(Nc3ccc(Br)cc3F)ncnc2cc1OCCCn1ccnc1` [Compound 14, 4-(4-bromo-2-fluoroanilino)-6-methoxy-7-(3-(1H-imidazol-1-yl)propoxy)quinazoline] and `COc1cc2c(Nc3ccc(Br)cc3F)ncnc2cc1OCCCC(N)=O` [Compound 23, 4-(4-(4-bromo-2-fluoroanilino)-6-methoxyquinazolin-7-yl-oxy)butanamide] are within 1.5-fold of each other in IC50: 2880 nM for the first, 3360 nM for the second.

`COc1cc2c(Nc3ccc(Br)cc3F)ncnc2cc1OCCCCCC(N)=O` [Compound 6, 6-(4-(4-bromo-2-fluoroanilino)-6-methoxyquinazolin-7-yl-oxy)hexanamide] and `COc1cc2c(Nc3ccc(Br)cc3F)ncnc2cc1OCC1CCN(C)CC1` [Vandetanib, reference compound] are within 1.5-fold of each other in IC50: 2650 nM for the first, 3510 nM for the second.

Test system: A549
Assay: In vitro cell experiment (MTT), A549
Type: cell-based
Conditions: 72 h, human non-small-cell lung carcinoma cells (EGFR1 wildtype)
Method: as §1, §2

Going from `COc1cc2c(Nc3ccc(F)c(Cl)c3)ncnc2cc1OCCN1CCCC1` [Compound 20, 4-(3-chloro-4-fluoroanilino)-6-methoxy-7-(2-(pyrrolidine-1-yl)ethoxy)quinazoline] to `COc1cc2c(Nc3ccc(Br)cc3F)ncnc2cc1OCC1CCN(C)CC1` [Vandetanib, reference compound], the IC50 rises from 2680 nM to 4450 nM (1.7-fold). The first is the more potent here.

Going from `COc1cc2c(Nc3ccc(Br)cc3F)ncnc2cc1OCCCCCC(N)=O` [Compound 6, 6-(4-(4-bromo-2-fluoroanilino)-6-methoxyquinazolin-7-yl-oxy)hexanamide] to `COc1cc2c(Nc3ccc(Br)cc3F)ncnc2cc1OCCCC(N)=O` [Compound 23, 4-(4-(4-bromo-2-fluoroanilino)-6-methoxyquinazolin-7-yl-oxy)butanamide], the IC50 falls from 3930 nM to 1410 nM (2.8-fold). The second is the more potent here.

`COc1cc2c(Nc3ccc(Br)cc3F)ncnc2cc1OCCCCCC(=O)N(C)C` [Compound 32, N, N-dimethyl-6-(4-(4-bromo-2-fluoroanilino)-6-methoxyquinazolin-7-yloxy)hexanamide] gave an IC50 of 2700 nM.

Test system: 3T3swiss
Assay: In vitro cell experiment (MTT), 3T3swiss
Type: cell-based
Conditions: Fibroblast, 72 h, mouse fibroblasts (PDGFR overexpressing)
Method: as §1, §2

`COc1cc2c(Nc3ccc(F)c(Cl)c3)ncnc2cc1OCCN1CCCC1` [Compound 20, 4-(3-chloro-4-fluoroanilino)-6-methoxy-7-(2-(pyrrolidine-1-yl)ethoxy)quinazoline] and `COc1cc2c(Nc3ccc(Br)cc3F)ncnc2cc1OCC1CCN(C)CC1` [Vandetanib, reference compound] are within 1.5-fold of each other in IC50: 1720 nM for the first, 2530 nM for the second.

With `COc1cc2c(Nc3ccc(Br)cc3F)ncnc2cc1OCCCC(N)=O` [Compound 23, 4-(4-(4-bromo-2-fluoroanilino)-6-methoxyquinazolin-7-yl-oxy)butanamide] the IC50 was 2150 nM.

Test system: HUVEC
Assay: In vitro cell experiment (MTT), HUVEC
Type: cell-based
Conditions: 72 h, human umbilical vein endothelial cell (KDR overexpressing)
Method: as §1, §2

With `COc1cc2c(Nc3ccc(Br)cc3F)ncnc2cc1OCCCCCC(N)=O` [Compound 6, 6-(4-(4-bromo-2-fluoroanilino)-6-methoxyquinazolin-7-yl-oxy)hexanamide] the IC50 was 37.6 nM.

Test system: Bel-7402
Assay: In vitro cell experiment (MTT), Bel-7402
Type: cell-based
Conditions: 72 h, human hepatoma carcinoma cells
Method: as §1, §2

`COc1cc2c(Nc3ccc(F)c(Cl)c3)ncnc2cc1OCCN1CCCC1` [Compound 20, 4-(3-chloro-4-fluoroanilino)-6-methoxy-7-(2-(pyrrolidine-1-yl)ethoxy)quinazoline] and `COc1cc2c(Nc3ccc(Br)cc3F)ncnc2cc1OCC1CCN(C)CC1` [Vandetanib, reference compound] are within 1.5-fold of each other in IC50: 5740 nM for the first, 6850 nM for the second.

`COc1cc2c(Nc3ccc(Br)cc3F)ncnc2cc1OCCCn1ccnc1` [Compound 14, 4-(4-bromo-2-fluoroanilino)-6-methoxy-7-(3-(1H-imidazol-1-yl)propoxy)quinazoline] gave an IC50 of 5940 nM.

Test system: SGC7901
Assay: In vitro cell experiment (MTT), SGC7901
Type: cell-based
Conditions: SGC-7901, 72 h, human gastric carcinoma cells
Method: as §1, §2

Work on `COc1cc2c(Nc3ccc(Br)cc3F)ncnc2cc1OCC1CCN(C)CC1` [Vandetanib, reference compound] yielded an IC50 of 6850 nM.

Test system: CFPAC-1
Assay: In vitro cell experiment (MTT), CFPAC-1
Type: cell-based
Conditions: 72 h, human pancreatic carcinoma cells
Method: as §1, §2

`COc1cc2c(Nc3ccc(Br)cc3F)ncnc2cc1OCC1CCN(C)CC1` [Vandetanib, reference compound] showed an IC50 of 6260 nM.

Test system: A498
Assay: In vitro cell experiment (MTT), A498
Type: cell-based
Conditions: 72 h, human renal carcinoma cells
Method: as §1, §2

`COc1cc2c(Nc3ccc(Br)cc3F)ncnc2cc1OCCCn1ccnc1` [Compound 14, 4-(4-bromo-2-fluoroanilino)-6-methoxy-7-(3-(1H-imidazol-1-yl)propoxy)quinazoline] and `COc1cc2c(Nc3ccc(Br)cc3F)ncnc2cc1OCC1CCN(C)CC1` [Vandetanib, reference compound] are within 1.5-fold of each other in IC50: 2730 nM for the first, 2960 nM for the second.

Test system: Eca109
Assay: In vitro cell experiment (MTT), Eca109
Type: cell-based
Conditions: ECa-109, 72 h, human esophageal carcinoma cells
Method: as §1, §2

For `COc1cc2c(Nc3ccc(Br)cc3F)ncnc2cc1OCC1CCN(C)CC1` [Vandetanib, reference compound], the IC50 was 6860 nM.

Test system: not listed separately
Assay: Mouse maximum tolerated dose (MTD) experiment
Conditions: in vivo, mice, oral, administered 7 days then observed 7 days
Method: In the mouse MTD experiment, the mice were administrated with the present compounds.
Healthy mice, having a small difference in body's weights, were chosen. The chosen mice were placed in different layers of cages according to their body's weights. In each layer, the mice were randomly divided into groups. In each group, there were three mice.
The administration dosages were 1000, 500, 250, 125, 62.5 and 31.25 mg/kg respectively and each two dosages differed by a factor of 2. For each of administration dosages, three mice were allotted. The mice were administrated with the present compounds for 7 days and then observed for the next 7 days without the present compounds.
The present compounds were orally administrated with the mice according to the administration dosage and the body weight.

Compared with `COc1cc2c(Nc3ccc(F)c(Cl)c3)ncnc2cc1OCCN1CCCC1` [Compound 20, 4-(3-chloro-4-fluoroanilino)-6-methoxy-7-(2-(pyrrolidine-1-yl)ethoxy)quinazoline], `COc1cc2c(Nc3ccc(Br)cc3F)ncnc2cc1OCCCn1ccnc1` [Compound 14, 4-(4-bromo-2-fluoroanilino)-6-methoxy-7-(3-(1H-imidazol-1-yl)propoxy)quinazoline] is lower in MTD: 125 to 250 mg/kg for the first, 62.5 to 125 mg/kg for the second.

First: COc1cc2c(Nc3ccc(Br)cc3F)ncnc2cc1OCCCCCC(N)=O [Compound 6, 6-(4-(4-bromo-2-fluoroanilino)-6-methoxyquinazolin-7-yl-oxy)hexanamide]
Second: COc1cc2c(Nc3ccc(Br)cc3F)ncnc2cc1OCCCCCC(=O)N(C)C [Compound 32, N, N-dimethyl-6-(4-(4-bromo-2-fluoroanilino)-6-methoxyquinazolin-7-yloxy)hexanamide]
The MTD of the first is higher: greater than 1000 mg/kg for the first, 500 to 1000 mg/kg for the second.
